Our source for the MIC50 and MIC80 values is patent publication US9512087B2, “Hybrid molecules containing pharmacophores of fluconazole as antifungal agents and their preparation” (Council for Scientific & Industrial Research, priority 2011, dated 2016).

Holding throughout (test): Antifungal MIC, broth dilution
For orientation: Dilution methods test growth across graded concentrations, often in twofold steps.

The subject of test [1] is C. krusei ATCC 6258. In kind it is cell-based. As to conditions: Pichia kudriavzevii, ATCC6258, RPMI 1640 with MOPS, end point 48 hours, read-out: Ck01 MIC50.
For test [2], the system named is A. fumigatus ATCC 46645. The format is cell-based. As to conditions: Aspergillus fumigatus, ATCC46645, RPMI 1640 with MOPS, end point 48 hours, read-out: Afm01 MIC50.
Test [3] has as its system C. albicans ATCC 24433. In kind it is cell-based, Candida albicans. As to conditions: Candida albicans, ATCC24433, RPMI 1640 with MOPS, end point 48 hours; for MIC80: read-out: Ca01 A: MIC80; for MIC50: read-out: Ca01 B: MIC50. How it is done:
(§1) The compounds of Formula 1 were tested for antifungal activity against Candida albicans, Aspergillus niger and Fusarium proliferatum. In vitro evaluation of antifungal activity was performed by determining the minimum inhibitory concentration (MIC) following standard methods (CLSI: Reference method for broth dilution antifungal susceptibility testing of yeasts; Approved standard, second edition M27-A2, 2002; CLSI: Reference method for broth dilution antifungal susceptibility testing of filamentous fungi; Approved standard M38-A, 2002). Anti-fungal susceptibility testing of these anti-fungal compounds was done by broth dilution method using RPMI 1640 medium with MOPS buffer. Known anti-fungal agents like fluconazole and amphotericin-B were used as positive control. End points were determined after 48 hours visually and by using spectrophotometer wherever necessary. Different dilutions were tried and various sets of experiments performed. The activity parameters are enumerated in Table 5.

Test [4] relates to C. neoformans ATCC 34664. In kind it is cell-based. The conditions noted are these: Cryptococcus neoformans, ATCC34664, RPMI 1640 with MOPS, end point 48 hours, read-out: Cn01 MIC50.
For test [5], the system named is C. tropicalis ATCC 750. In kind it is cell-based. As to conditions: Candida tropicalis, ATCC750, RPMI 1640 with MOPS, end point 48 hours, read-out: Ct01 MIC50.
Test [6] deals with F. proliferatum ATCC 10052. The format is cell-based, Fusarium proliferatum. The conditions noted are these: Fusarium proliferatum, ATCC10052, RPMI 1640 with MOPS, end point 48 hours, read-out: Fp01 MIC50. On the procedure: as §1
Test [7] concerns A. niger ATCC 16404. In kind it is cell-based, Aspergillus niger. As to conditions: Aspergillus niger, ATCC16404, RPMI 1640 with MOPS, end point 48 hours, read-out: An01 MIC50. On the procedure:
as §1

Test [8] concerns C. glabrata ATCC 90030. In kind it is cell-based. As to conditions: Nakaseomyces glabratus, ATCC90030, RPMI 1640 with MOPS, end point 48 hours, read-out: Cg01 MIC50.

Converted amounts (≈) assume the structure as drawn. Bounds are passed on as bounds.

For `OC(/C=C/c1ccc(Cl)cc1Cl)c1ccc(OCC(O)(Cn2cncn2)c2ccc(F)cc2F)cc1` (stereo not drawn) [Compound 1C-1, (E)-3-(2,4-dichlorophenyl)-1-(4-(2-(2,4-difluorophenyl)-2-hydroxy-3-(1H-1,2,4-triazol-1-yl)propoxy)phenyl)prop-2-en-1-ol], the MIC50 (commonly an inhibitory concentration at the 50% level, which refers to growth in some studies and to a panel of isolates in others) in test [1] was 4 µg/mL (≈ 7.51 µM); in test [2], above 4 µg/mL; in test [3], 0.5 µg/mL (≈ 0.939 µM); in test [4] it was 0.5 µg/mL (≈ 0.939 µM); in test [5], 1 µg/mL (≈ 1.88 µM); in test [6], above 4 µg/mL. Further, the values for the MIC50 in test [7] and in test [8] were above 4 µg/mL and 0.25 µg/mL (≈ 0.47 µM), respectively. Moreover, the MIC80 (commonly the lowest concentration that inhibits either 80% of growth or 80% of the strains tested, depending on the study) in test [3] is 0.5 µg/mL (≈ 0.939 µM).
As for `OC(COc1ccc(-c2cc(-c3ccc(Cl)cc3Cl)[nH]n2)cc1)(Cn1cncn1)c1ccc(F)cc1F` (stereo not drawn) [Compound 1D-1, 1-(4-(5-(2,4-dichlorophenyl)-1H-pyrazol-3-yl)phenoxy)-2-(2,4-difluorophenyl)-3-(1H-1,2,4-triazol-1-yl)propan-2-ol], the MIC50 in test [1] is 2 µg/mL (≈ 3.69 µM); in test [2] it was above 4 µg/mL; in test [3], 0.5 µg/mL (≈ 0.922 µM); in test [4], 1 µg/mL (≈ 1.84 µM); in test [5], 0.5 µg/mL (≈ 0.922 µM); in test [6] it was above 4 µg/mL. Also, the MIC50 in test [7] is above 4 µg/mL; in test [8], 1 µg/mL (≈ 1.84 µM). Moreover, the MIC80 in test [3] was 0.5 µg/mL (≈ 0.922 µM).
On to `OC(COc1ccc(C2=NNC(c3ccc(Cl)cc3Cl)C2)cc1)(Cn1cncn1)c1ccc(F)cc1F` (stereo not drawn) [Compound 1E-1, 1-(4-(5-(2,4-dichlorophenyl)-4,5-dihydro-1H-pyrazol-3-yl)phenoxy)-2-(2,4-difluorophenyl)-3-(1H-1,2,4-triazol-1-yl)propan-2-ol], for which the MIC50 in test [1] was above 8 µg/mL; in test [2] it was above 8 µg/mL; in test [3], 0.25 µg/mL (≈ 0.459 µM); in test [4] it was 2 µg/mL (≈ 3.67 µM); in test [5] it was 1 µg/mL (≈ 1.84 µM); in test [6], above 8 µg/mL. Moreover, the MIC50 is above 8 µg/mL in test [7] and 2 µg/mL (≈ 3.67 µM) in test [8]. Also, the MIC80 in test [3] came to 0.25 µg/mL (≈ 0.459 µM).
As for `OC(Cn1cncn1)(Cn1cncn1)c1ccc(F)cc1F` [FLU, fluconazole], the MIC50 is 32 µg/mL (≈ 104 µM) in test [1]; above 128 µg/mL in test [2]; 0.25 µg/mL (≈ 0.816 µM) in test [3]; 2 µg/mL (≈ 6.53 µM) in test [4]; 1 µg/mL (≈ 3.27 µM) in test [5]; above 128 µg/mL in test [6]. The figures for the MIC50 in test [7] and in test [8] were above 128 µg/mL and 1 µg/mL (≈ 3.27 µM), respectively. Besides, the MIC80 in test [3] was determined as 1 µg/mL (≈ 3.27 µM).
Regarding `COc1ccc(/C=C/C(=O)c2ccc(OC[C@](O)(Cn3cncn3)c3ccc(F)cc3F)cc2)cc1` [R-(−)-1A-2], the MIC50 in test [1] was 2 µg/mL (≈ 4.07 µM); in test [2] it was above 4 µg/mL; in test [3], 0.06 µg/mL (≈ 0.122 µM); in test [4], 0.5 µg/mL (≈ 1.02 µM); in test [5] it was 0.25 µg/mL (≈ 0.509 µM); in test [6], above 4 µg/mL. Moreover, the MIC50 worked out at 2 µg/mL (≈ 4.07 µM) in test [7] and 0.06 µg/mL (≈ 0.122 µM) in test [8]. The MIC80 in test [3] is 0.12 µg/mL (≈ 0.244 µM).
As to `O=C(/C=C/c1ccc(Cl)cc1)c1ccc(OC[C@](O)(Cn2cncn2)c2ccc(F)cc2F)cc1` [R-(−)-1A-6, R-(−)-(E)-3-(4-chlorophenyl)-1-(4-(2-(2,4-difluorophenyl)-2-hydroxy-3-(1H-1,2,4-triazol-1-yl)propoxy)phenyl)prop-2-en-1-one], the MIC50 is 1 µg/mL (≈ 2.02 µM) in test [1]; above 4 µg/mL in test [2]; 0.06 µg/mL (≈ 0.121 µM) in test [3]; 0.25 µg/mL (≈ 0.504 µM) in test [4]; 0.5 µg/mL (≈ 1.01 µM) in test [5]; above 4 µg/mL in test [6]. The MIC50 in test [7] is above 4 µg/mL; in test [8], 0.12 µg/mL (≈ 0.242 µM). For the same molecule, in test [3], the MIC80 came out at 0.12 µg/mL (≈ 0.242 µM).
`O=C(/C=C/c1cccs1)c1ccc(OC[C@](O)(Cn2cncn2)c2ccc(F)cc2F)cc1` [R-(−)-1A-13]: the MIC50 in test [1] was 2 µg/mL (≈ 4.28 µM); in test [2], above 4 µg/mL; in test [3] it was 0.03 µg/mL (≈ 0.0642 µM); in test [4] it was 0.5 µg/mL (≈ 1.07 µM); in test [5], 0.12 µg/mL (≈ 0.257 µM); in test [6], above 4 µg/mL. The MIC50 in test [7] is above 4 µg/mL; in test [8] it was 0.03 µg/mL (≈ 0.0642 µM). The MIC80 in test [3] stood at 0.12 µg/mL (≈ 0.257 µM).
As for `COc1ccc(/C=C/C(=O)c2ccc(OC[C@@](O)(Cn3cncn3)c3ccc(F)cc3F)cc2)cc1` [S-(+)-1A-2], the MIC50 was above 4 µg/mL in test [1]; above 4 µg/mL in test [2]; 0.5 µg/mL (≈ 1.02 µM) in test [3]; 2 µg/mL (≈ 4.07 µM) in test [4]; 2 µg/mL (≈ 4.07 µM) in test [5]; above 4 µg/mL in test [6]. Besides, the MIC50 was above 4 µg/mL in test [7] and 1 µg/mL (≈ 2.03 µM) in test [8]. Besides, the MIC80 in test [3] was determined as 1 µg/mL (≈ 2.03 µM).
As for `O=C(/C=C/c1ccc(Cl)cc1)c1ccc(OC[C@@](O)(Cn2cncn2)c2ccc(F)cc2F)cc1` [S-(+)-1A-6, S-(+)-(E)-3-(4-chlorophenyl)-1-(4-(2-(2,4-difluorophenyl)-2-hydroxy-3-(1H-1,2,4-triazol-1-yl)propoxy)phenyl)prop-2-en-1-one], the MIC50 in test [1] is 4 µg/mL (≈ 8.07 µM); in test [2] it was above 4 µg/mL; in test [3] it was 1 µg/mL (≈ 2.02 µM); in test [4], 2 µg/mL (≈ 4.03 µM); in test [5], 2 µg/mL (≈ 4.03 µM); in test [6] it was above 4 µg/mL. The MIC50 in test [7] is above 4 µg/mL; in test [8] it was 0.5 µg/mL (≈ 1.01 µM). In addition, the MIC80 in test [3] was 2 µg/mL (≈ 4.03 µM).
With `O=C(/C=C/c1cccs1)c1ccc(OC[C@@](O)(Cn2cncn2)c2ccc(F)cc2F)cc1` [S-(+)-1A-13], the MIC50 in test [1] is above 4 µg/mL; in test [2], above 4 µg/mL; in test [3], 0.25 µg/mL (≈ 0.535 µM); in test [4] it was 4 µg/mL (≈ 8.56 µM); in test [5], 2 µg/mL (≈ 4.28 µM); in test [6], above 4 µg/mL. In addition, the values for the MIC50 in test [7] and in test [8] were above 4 µg/mL and 0.25 µg/mL (≈ 0.535 µM), respectively. For the same molecule, in test [3], the MIC80 is 0.5 µg/mL (≈ 1.07 µM).
